Test results from ChEMBL document CHEMBL1147247, “New cytotoxic sesterterpenoids and norsesterterpenoids from two sponges of the genus Sarcotragus” (2003).
Converted amounts (≈) assume the structure as drawn.

Key:
Assay type in all cases: functional
Settings in all cases: read-out: ED50 (the source's name)
XF498 = assay: Cytotoxicity against human XF498 cells
A549 = assay: Cytotoxicity against human A549 cells
SK-MEL-2 = assay: Cytotoxicity against human SK-MEL-2 cells
SK-OV-3 = assay: Cytotoxicity against human SKOV3 cells
HCT-15 = assay: Cytotoxicity against human HCT15 cells

Compound	EC50 (XF498) [µg/mL]	EC50 (A549) [µg/mL]	EC50 (SK-MEL-2) [µg/mL]	EC50 (SK-OV-3) [µg/mL]	EC50 (HCT-15) [µg/mL]
COc1cccc2c1C(=O)c1c(O)c3c(c(O)c1C2=O)C[C@@](O)(C(=O)CO)C[C@@H]3O[C@H]1C[C@H](N)[C@H](O)[C@H](C)O1 [DOXORUBICIN]	0.19 (≈ 0.35 µM)	0.04 (≈ 0.0736 µM)	0.06 (≈ 0.11 µM)	0.15 (≈ 0.276 µM)	0.24 (≈ 0.442 µM)
CC(=O)C(O)C(O)C/C(C)=C\CC[C@H](C)/C=C/C=C(\C)CCCC1=CC(=O)OC1O (stereo not given in full) [SARCOTIN O]	11.5 (≈ 27.3 µM)	6.8 (≈ 16.2 µM)	3 (≈ 7.13 µM)	14.9 (≈ 35.4 µM)	4.6 (≈ 10.9 µM)
CC1=C(O)[C@@H](C/C(C)=C\CC[C@H](C)/C=C/C=C(\C)CCCC2=CC(=O)N(CC(=O)[O-])C2)OC1=O.[Na+] [ISOSARCOTRINE E]	> 30	> 30	> 30	> 30	> 30
COC1C=C(CCC/C(C)=C/C=C/[C@@H](C)CC/C=C(/C)C[C@H]2OC(=O)C(C)=C2O)C(=O)O1 (stereo not given in full)	> 30	> 30	10.9 (≈ 24.5 µM)	> 30	33 (≈ 74.2 µM)
CC1=C(O)[C@@H](C/C(C)=C\CC[C@H](C)/C=C/C=C(\C)CCCC2=CCN(CC(=O)[O-])C2=O)OC1=O.[Na+] [SARCOTRINE E]	> 30	> 30	> 30	> 30	> 30
C/C(=C\CCc1ccoc1)C[C@@H]1C=C(C/C=C/c2ccoc2)C(=O)O1	11.8 (≈ 34.9 µM)	7.9 (≈ 23.3 µM)	4.5 (≈ 13.3 µM)	32.3 (≈ 95.4 µM)	4.2 (≈ 12.4 µM)
COC(=O)[C@H](O)C/C(C)=C\CC[C@H](C)/C=C/C=C(\C)CCCC1=CC(=O)O[C@H]1O [SARCOTIN N]	> 30	19.4 (≈ 47.7 µM)	10.9 (≈ 26.8 µM)	> 30	21.7 (≈ 53.4 µM)
